Literature values in patent publication US20040166503A1, “Methods for gene expression profiling” (priority 2004, published 2004).

What was measured:
[1] = system: resistant HL60 human promyelocytic cell line; details: inhibition of glutathione synthesis by BSO
[2] = system: p38 kinase; details: during TLK286 induced apoptosis
[3] = system: cancer cell lines and tumors; details: wide variety of cancer cell lines and tumors
[4] = system: c-Jun N-terminal kinase (JNK); details: during TLK286 induced apoptosis
[5] = system: M7609 xenografts expressing different levels of GST P1-1; details: murine xenografts of M7609; responses positively correlated with GST P1-1 expression
[6] = system: bone marrow stem cells and peripheral white blood cell
[7] = system: extracellular signal-regulated kinase (ERK); details: during TLK286 induced apoptosis

SMILES | effect on sensitivity of resistant cells to TLK286 [1] | p38 kinase activation [2] | cytotoxicity [3] | JNK activation [4] | antitumor activity in vivo [5] | myelosuppressive effect (toxicity) [6] | ERK activation [7]
CCCCS(=N)(=O)CCC(N)C(=O)O (stereo not shown) [BSO] | increases the sensitivity | – | – | – | – | – | –
N[C@@H](CCC(=O)N[C@@H](CS(=O)(=O)CCOP(=O)(N(CCCl)CCCl)N(CCCl)CCCl)C(=O)N[C@@H](C(=O)O)c1ccccc1)C(=O)O [TLK286, gamma-glutamyl-alpha-amino-beta(2-ethyl-N,N,N′,N-tetrakis(2-chloroethyl)phosphorodiamidate)-sulfonyl-propionyl-(R)-(−)phenylglycine] | – | not | cytotoxic | activated | antitumor activity has also been observed | only mildly toxic | not
